Key:
Italian ryegrass = assay: Test C pre-/postemergence test; format: in vivo, Lolium multiflorum; settings: for Plant response rating, Ryegrass, Italian: 31 g ai/ha, scale 0 to 100 (0 no effect, 100 complete control)
How it was run: (§1)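 Compounds in a non-phytotoxic solvent with surfactant applied preemergence to seeded pots and, at the same time, postemergence to plants 2–18 cm tall (1- to 4-leaf stage). Paddy tests: pots flooded to 3 cm, compound applied into the water, depth held throughout.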

velvetleaf = assay: Test C pre-/postemergence test; format: in vivo, Abutilon theophrasti; settings: for Plant response rating, Velvetleaf: 31 g ai/ha, scale 0 to 100 (0 no effect, 100 complete control)
How it was run: as §1

barnyardgrass = assay: Test A pre-/postemergence greenhouse test; format: in vivo, Echinochloa crus-galli; settings: for Barnyardgrass plant response rating: 0 to 100 scale; for Plant response rating, Barnyardgrass: 0 to 100 scale where 0 is no effect and 100 is complete control
How it was run: (§2)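 Planting was into mixed loam soil and sand; preemergence treatment followed as a directed soil spray. Concurrently, emerged plants (one- to two-leaf, 2–10 cm) received postemergence applications of identically formulated compound (non-phytotoxic solvent, surfactant). After approximately ten days under greenhouse conditions, injury was judged by eye against untreated plants.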

crabgrass [1] = assay: Test A pre-/postemergence greenhouse test; format: in vivo, Digitaria sanguinalis; settings: for Crabgrass, Large plant response rating: 0 to 100 scale; for Plant response rating, Crabgrass, Large: 0 to 100 scale where 0 is no effect and 100 is complete control
How it was run: as §2

Surinam grass = assay: Test C pre-/postemergence test; format: in vivo, Brachiaria decumbens; settings: for Plant response rating, Surinam Grass: 31 g ai/ha, scale 0 to 100 (0 no effect, 100 complete control)
How it was run: as §1

eastern black nightshade = assay: Test C pre-/postemergence test; format: in vivo, Solanum ptycanthum; settings: for Plant response rating, Nightshade: 31 g ai/ha, scale 0 to 100 (0 no effect, 100 complete control)
How it was run: as §1

corn [2] = assay: Test A pre-/postemergence greenhouse test; format: in vivo, Zea mays; settings: for Corn plant response rating: 0 to 100 scale; for Plant response rating, Corn: 0 to 100 scale where 0 is no effect and 100 is complete control
How it was run: as §2

crabgrass [3] = assay: Test C pre-/postemergence test; format: in vivo, Digitaria sanguinalis; settings: for Plant response rating, Crabgrass, Large: 31 g ai/ha, scale 0 to 100 (0 no effect, 100 complete control)
How it was run: as §1

Goosegrass = assay: Test C pre-/postemergence test; format: in vivo, Eleusin indica; settings: for Plant response rating, Goosegrass: 31 g ai/ha, scale 0 to 100 (0 no effect, 100 complete control)
How it was run: as §1

umbrella sedge = assay: Test C flooded paddy test; format: in vivo, Cyperus difformis; settings: Flood
How it was run: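 Test compounds are applied straight into paddy water held 3 cm above the soil surface, with that flood maintained for the whole test. After 13 to 15 days in the greenhouse, each species is scored visually relative to controls.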

[4] = system: common (oilseed) sunflower; assay: Test C pre-/postemergence test; format: in vivo, Helianthus annuus
How it was run: as §1

corn [5] = assay: Test C pre-/postemergence test; format: in vivo, Zea mays; settings: for Plant response rating, Corn: 31 g ai/ha, scale 0 to 100 (0 no effect, 100 complete control)
How it was run: as §1

wheat = assay: Test A pre-/postemergence greenhouse test; format: in vivo, Triticum aestivum; settings: for Wheat plant response rating: 0 to 100 scale; for Plant response rating, Wheat: 0 to 100 scale where 0 is no effect and 100 is complete control
How it was run: as §2

morningglory = assay: Test C pre-/postemergence test; format: in vivo, Ipomoea coccinea; settings: for Plant response rating, Morningglory: 31 g ai/ha, scale 0 to 100 (0 no effect, 100 complete control)
How it was run: as §1

giant foxtail = assay: Test C pre-/postemergence test; format: in vivo, Setaria faberii; settings: for Plant response rating, Foxtail, Giant: 31 g ai/ha, scale 0 to 100 (0 no effect, 100 complete control)
How it was run: as §1

pigweed = assay: Test C pre-/postemergence test; format: in vivo, Amaranthus retroflexus; settings: for Plant response rating, Pigweed: 31 g ai/ha, scale 0 to 100 (0 no effect, 100 complete control)
How it was run: as §1

johnsongrass = assay: Test C pre-/postemergence test; format: in vivo, Sorghum halepense; settings: for Plant response rating, Johnsongrass: 31 g ai/ha, scale 0 to 100 (0 no effect, 100 complete control)
How it was run: as §1

[6] = 62 g ai/ha, Preemergence, scale 0 to 100
[7] = Postemergence, 125 g ai/ha, 0 is no effect, 100 is complete control
[8] = Postemergence, 500 g ai/ha, 0 is no effect, 100 is complete control
[9] = Preemergence, 125 g ai/ha, 0 no effect, 100 complete control
[10] = 31 g ai/ha, scale 0 to 100 (0 no effect, 100 complete control)
[11] = 125 g ai/ha, scale 0 to 100, 0 no effect, 100 complete control, 13 to 15 days
[12] = 250 g ai/ha, scale 0 to 100, 0 no effect, 100 complete control, 13 to 15 days
[13] = 125 g ai/ha, preemergence, scale 0 (no effect) to 100 (complete control)
[14] = preemergence, 250 g ai/ha, scale 0 (no effect) to 100 (complete control)
[15] = Preemergence, 500 g ai/ha, 0 no effect, 100 complete control

CC(c1c(C(F)(F)F)nn(C)c1OCC(F)(F)F)S(=O)(=O)c1cccc[n+]1[O-] (racemic) [Compound 33]
Ryegrass, Italian plant response rating (Italian ryegrass; [6]): 80 | Plant response rating, Ryegrass, Italian (Italian ryegrass; Preemergence): 70 | Velvetleaf plant response rating (velvetleaf; [6]): 100 | Plant response rating, Velvetleaf (velvetleaf; Preemergence): 100 | Barnyardgrass plant response rating (barnyardgrass; [7]): 70 | Barnyardgrass plant response rating (barnyardgrass; [8]): 100 | Barnyardgrass plant response rating (barnyardgrass; [9]): 100 | Plant response rating, Barnyardgrass (barnyardgrass; Preemergence, 500 g ai/ha): 100 | Crabgrass, Large plant response rating (crabgrass [1]; [7]): 90 | Crabgrass, Large plant response rating (crabgrass [1]; [8]): 90 | Crabgrass, Large plant response rating (crabgrass [1]; [9]): 90 | Plant response rating, Crabgrass, Large (crabgrass [1]; Preemergence, 500 g ai/ha): 100 | Surinam Grass plant response rating (Surinam grass; [6]): 100 | Plant response rating, Surinam Grass (Surinam grass; Preemergence): 80 | Nightshade plant response rating (eastern black nightshade; [6]): 85 | Plant response rating, Nightshade (eastern black nightshade; Preemergence): 70 | Corn plant response rating (corn [2]; [7]): 50 | Corn plant response rating (corn [2]; [8]): 70 | Corn plant response rating (corn [2]; [9]): 70 | Plant response rating, Corn (corn [2]; Preemergence, 500 g ai/ha): 80 | Crabgrass, Large plant response rating (crabgrass [3]; [6]): 100 | Plant response rating, Crabgrass, Large (crabgrass [3]; Preemergence): 100 | Plant response rating (0 to 100), Crabgrass, Large (crabgrass [3]; Preemergence, 250 g ai/ha): 100 | Goosegrass plant response rating (Goosegrass; [6]): 100 | Plant response rating, Goosegrass (Goosegrass; Preemergence): 100 | Plant response rating (0 to 100), Goosegrass (Goosegrass; Preemergence, 250 g ai/ha): 100 | Plant response rating, Sedge, Umbrella (umbrella sedge; [10]): 80 | Plant response rating, Sedge, Umbrella (umbrella sedge; 62 g ai/ha, scale 0 to 100, 0 no effect, 100 complete control, 13 to 15 days): 90 | Plant response rating, Sedge, Umbrella (umbrella sedge; [11]): 95 | Plant response rating, Sedge, Umbrella (umbrella sedge; [12]): 95 | Sunflower plant response rating [4, 6]: 0 | Corn plant response rating (corn [5]; [6]): 90 | Plant response rating, Corn (corn [5]; Preemergence): 60 | Plant response rating (0 to 100), Corn (corn [5]; Preemergence, 250 g ai/ha): 98 | Corn plant response rating (corn [5]; preemergence, 125 g ai/ha, scale 0 (no effect) to 100 (complete control)): 98 | Wheat plant response rating (wheat; [7]): 60 | Wheat plant response rating (wheat; [8]): 70 | Wheat plant response rating (wheat; [9]): 60 | Plant response rating, Wheat (wheat; Preemergence, 500 g ai/ha): 100 | Morningglory plant response rating (morningglory; [6]): 100 | Plant response rating, Morningglory (morningglory; Preemergence): 100 | Foxtail, Giant plant response rating (giant foxtail; [6]): 100 | Plant response rating, Foxtail, Giant (giant foxtail; Preemergence): 98 | Plant response rating (0 to 100), Foxtail, Giant (giant foxtail; Preemergence, 250 g ai/ha): 100 | Pigweed plant response rating (pigweed; [6]): 100 | Plant response rating, Pigweed (pigweed; Preemergence): 100 | Johnsongrass plant response rating (johnsongrass; [6]): 100 | Plant response rating, Johnsongrass (johnsongrass; Preemergence): 98 | Plant response rating (0 to 100), Johnsongrass (johnsongrass; Preemergence, 250 g ai/ha): 100

CC(C)c1cc[n+]([O-])c([S+]([O-])Cc2c(C(F)(F)F)nn(C)c2OC(F)F)c1 (stereo not drawn) [Compound 109]
Ryegrass, Italian plant response rating (Italian ryegrass; [6]): 0 | Ryegrass, Italian plant response rating (Italian ryegrass; [13]): 0 | Plant response rating, Ryegrass, Italian (Italian ryegrass; Preemergence): 0 | Ryegrass, Italian plant response rating (Italian ryegrass; [14]): 0 | Velvetleaf plant response rating (velvetleaf; [6]): 80 | Velvetleaf plant response rating (velvetleaf; [13]): 98 | Plant response rating, Velvetleaf (velvetleaf; Preemergence): 10 | Velvetleaf plant response rating (velvetleaf; [14]): 100 | Plant response rating, Barnyardgrass (barnyardgrass; Postemergence, 125 g ai/ha): 80 | Barnyardgrass plant response rating (barnyardgrass; [8]): 90 | Barnyardgrass plant response rating (barnyardgrass; [9]): 70 | Barnyardgrass plant response rating (barnyardgrass; [15]): 100 | Plant response rating, Crabgrass, Large (crabgrass [1]; Postemergence, 125 g ai/ha): 60 | Crabgrass, Large plant response rating (crabgrass [1]; [8]): 90 | Crabgrass, Large plant response rating (crabgrass [1]; [9]): 90 | Crabgrass, Large plant response rating (crabgrass [1]; [15]): 100 | Surinam Grass plant response rating (Surinam grass; [6]): 95 | Surinam Grass plant response rating (Surinam grass; [13]): 100 | Plant response rating, Surinam Grass (Surinam grass; Preemergence): 50 | Surinam Grass plant response rating (Surinam grass; [14]): 100 | Nightshade plant response rating (eastern black nightshade; [6]): 80 | Nightshade plant response rating (eastern black nightshade; [13]): 95 | Plant response rating, Nightshade (eastern black nightshade; Preemergence): 20 | Nightshade plant response rating (eastern black nightshade; [14]): 100 | Plant response rating, Corn (corn [2]; Postemergence, 125 g ai/ha): 60 | Corn plant response rating (corn [2]; [8]): 80 | Corn plant response rating (corn [2]; [9]): 50 | Corn plant response rating (corn [2]; [15]): 90 | Crabgrass, Large plant response rating (crabgrass [3]; [6]): 100 | Crabgrass, Large plant response rating (crabgrass [3]; [13]): 100 | Plant response rating, Crabgrass, Large (crabgrass [3]; Preemergence): 80 | Crabgrass, Large plant response rating (crabgrass [3]; [14]): 100 | Goosegrass plant response rating (Goosegrass; [6]): 100 | Goosegrass plant response rating (Goosegrass; [13]): 100 | Plant response rating, Goosegrass (Goosegrass; Preemergence): 100 | Goosegrass plant response rating (Goosegrass; [14]): 100 | Plant response rating, Sedge, Umbrella (umbrella sedge; [10]): 0 | Plant response rating, Sedge, Umbrella (umbrella sedge; 62 g ai/ha, scale 0 to 100 (0 no effect, 100 complete control)): 0 | Plant response rating, Sedge, Umbrella (umbrella sedge; [11]): 50 | Plant response rating, Sedge, Umbrella (umbrella sedge; [12]): 75 | Sunflower plant response rating [4, 6]: 50 | Sunflower plant response rating [4, 13]: 55 | Plant response rating, Sunflower ([4]; Preemergence, 31 g ai/ha, scale 0 to 100 (0 no effect, 100 complete control)): 50 | Sunflower plant response rating [4, 14]: 75 | Corn plant response rating (corn [5]; [6]): 70 | Corn plant response rating (corn [5]; [13]): 95 | Plant response rating, Corn (corn [5]; Preemergence): 50 | Corn plant response rating (corn [5]; [14]): 98 | Plant response rating, Wheat (wheat; Postemergence, 125 g ai/ha): 60 | Wheat plant response rating (wheat; [8]): 70 | Wheat plant response rating (wheat; [9]): 60 | Wheat plant response rating (wheat; [15]): 100 | Morningglory plant response rating (morningglory; [6]): 100 | Morningglory plant response rating (morningglory; [13]): 100 | Plant response rating, Morningglory (morningglory; Preemergence): 80 | Morningglory plant response rating (morningglory; [14]): 100 | Foxtail, Giant plant response rating (giant foxtail; [6]): 100 | Foxtail, Giant plant response rating (giant foxtail; [13]): 100 | Plant response rating, Foxtail, Giant (giant foxtail; Preemergence): 100 | Foxtail, Giant plant response rating (giant foxtail; [14]): 100 | Pigweed plant response rating (pigweed; [6]): 100 | Pigweed plant response rating (pigweed; [13]): 100 | Plant response rating, Pigweed (pigweed; Preemergence): 100 | Pigweed plant response rating (pigweed; [14]): 100 | Johnsongrass plant response rating (johnsongrass; [6]): 100 | Johnsongrass plant response rating (johnsongrass; [13]): 100 | Plant response rating, Johnsongrass (johnsongrass; Preemergence): 85 | Johnsongrass plant response rating (johnsongrass; [14]): 100
